Like-named read-outs stand apart in the source and are kept apart here. Marks after values point to notes of the source that are not given here. Values belong to the compound of their own block, whether it stands above or below them.
Legend:
[1] = test system: ADP induced platelet aggregation; experiment: In vitro anti-platelet aggregation, ADP induced (turbidimetry, PRP); type: cell-based, rabbits
Method: (§1) The animals were used for experiments after 1 week.
(§2) The common carotid artery was separated, and a polyethylene tube was inserted into the common carotid artery to collect blood. […] The upper beige suspension was pipetted to obtain the platelet-rich plasma (PRP). […] The PRP was adjusted with the PPP to make the platelet count at 1×10^8/mL.
(§3) 260 μL of platelet-rich plasma (PRP) was added into a turbidimetric tube. Then 10 μL of test compounds with different concentrations, positive control drugs or normal saline were separately added, and the plasma was incubated at 37° C. for 5 min. Then 30 μL of inducers were added in sequence. The final concentration of an inducer ADP is 10 μM, and the final concentration of an inducer AA is 1 mM. […] Inhibition rate of platelet aggregation (IRPA)=(platelet aggregation rate of the control group−platelet aggregation rate of the experimental group)/platelet aggregation rate of the control group×100%.

[2] = test system: AA induced platelet aggregation; experiment: In vitro anti-platelet aggregation, AA induced (turbidimetry, PRP); type: cell-based, rabbits
Method: as §1, §2, §3

[3] = test system: MCAO rats; experiment: Cerebral infarction, cerebral edema and nerve function of rats with focal cerebral ischemia (MCAO); type: in vivo, SD rats; conditions: for inhibition at 10 mg/kg/day: Rattus norvegicus
Method: The total number of the animals was 88.
Sham operation group: equal volume of normal saline (containing 1% DMSO) (iv. 3 days), TTC, cerebral edema and neurological function score (n=8); […]
The middle cerebral arteries of the rats were blocked by a suture-occluded method, and reperfused after 2 h. […] All drugs were formulated into normal saline solutions containing 1% DMSO for administration, and the duration of administration was controlled at approximately 1 min. […] 2 h after the last administration, the neurological defect scores were firstly obtained, and then the rats of each group were sacrificed. The whole brains were taken out and weighed (wet weight), TTC stained, and dried to determine the effects of the compounds on cerebral infarction and cerebral edema.
2 h after the last administration, the neurological defects of the animals were graded and scored by the Longa's method.
After the neurobehavioral examination was completed, four coronal incisions were made on the whole brains of the rats on the optic chiasma and 2 mm anteroposterior positions of the optic chiasma. After the whole brains were cut into five slices, the brain slices were quickly placed in 5 ml of phosphate buffer solution containing 2% TTC, and incubated at 37° C. in the dark. In the incubation process, the brain slices were turned once every 5 min. After 10 min of incubation, the brain slices were taken out and pictures were taken with a digital camera (Olympus C-4000, Japan).
The calculation formula of brain water content is as follows: Water content of brain tissue (%)=(wet weight of brain tissue−dry weight of brain tissue)/wet weight of brain tissue×100%; Cerebral edema rate (%)=water content of brain tissue of each group (%)−water content of brain tissue of sham operation group (%)/water content of brain tissue of sham operation group (%)×100%; Inhibition rate of cerebral edema (%)=(rate of cerebral edema of model group (%)−rate of cerebral edema of administration group (%))/rate of cerebral edema of model group (%)×100%.

[4] = test system: arteriovenous bypass thrombosis in rats; experiment: Effect on arteriovenous bypass thrombosis in rats; type: in vivo, SD rats; conditions: 10 mg/kg/day tail vein 7 days; for Dry weight of thrombus / Wet weight of thrombus: 2 h after last dose; for inhibition at 10 mg/kg/day: Rattus norvegicus, 168 h
Method: Male SD rats, weighing 250-280 g, purchased from Beijing Vital River Laboratory Animal Technology Co., Ltd., raised in an SPF breeding environment with indoor temperature controlled at 23±2° C., and allowed to freely eat and drink. The total number of the animals is 64.
Model group: injected with the same volume of normal saline (containing 1% DMSO) through the tail vein, and administered continuously for 7 days. The test was started 2 h after the last dose (n=8).
The dose of all drugs was 10 mg/kg/day. The drugs were formulated into normal saline solutions containing 1% DMSO, and injected through the tail vein for 7 consecutive days. The test was started 2 hours after the last dose (n=8).
The rats were intraperitoneally injected with a 3% pentobarbital sodium solution (30 mg/kg). After anesthesia, the rats were immobilized in the supine position, and a median cervical incision was made to separate the right common carotid artery and left external jugular vein. A 6 cm long suture was put in the middle of a polyethylene tube (the suture needs to be weighed before being put in the tube), and the polyethylene tube was filled with heparin saline (50 U/mL). The polyethylene tube was inserted into the separated blood vessels to make the artery and vein form a loop. After 15 min of circulation of the blood flow, the suture was taken out, and the suture with thrombus was collected and weighed immediately. Then, after the suture was dried at room temperature for 24 h, the dry weight was determined. The total weight minus the weight of the suture was the wet weight of the thrombus, and the dry weight minus the weight of the suture was the dry weight of the thrombus.

[5] = Oryctolagus cuniculus, Platelet, read-out: IC50 ADP (10 μM), rabbit PRP, inducer ADP 10 μM, 37° C.
[6] = Oryctolagus cuniculus, Platelet, read-out: IC50 AA (1 mM), rabbit PRP, inducer AA 1 mM, 37° C.
[7] = read-out: IC50 ADP (10 μM), rabbit PRP, inducer ADP 10 μM, 37° C.
[8] = read-out: IC50 AA (1 mM), rabbit PRP, inducer AA 1 mM, 37° C.
[9] = MCAO rats, 10 mg/kg/day iv 3 days (combinations equimolar), first dose 2 h after reperfusion
[10] = iv 2 h after the beginning of reperfusion, 5 mg/kg
[11] = iv 2 h after the beginning of reperfusion, 10 mg/kg
[12] = iv 2 h after the beginning of reperfusion, 20 mg/kg
[13] = iv at the beginning of reperfusion, 5 mg/kg
[14] = iv at the beginning of reperfusion, 10 mg/kg
[15] = iv at the beginning of reperfusion, 20 mg/kg
[16] = MCAO rats, 10 mg/kg/day iv 3 days (combinations equimolar), first dose 2 h after reperfusion, read-out: Inhibition rate of cerebral edema
[17] = MCAO rats, 10 mg/kg/day iv 3 days (combinations equimolar), first dose 2 h after reperfusion, read-out: Inhibition rate of infarct volume
[18] = vs model group, read-out: Inhibition rate (dry weight of thrombus)
[19] = vs model group, read-out: Inhibition rate (wet weight of thrombus)

SMILES: CCCCC(OC(=O)CC)c1ccccc1C(=O)O (racemic) [I2, L-Arginine (R/S)-2-(1-Propionyloxy-n-Pentyl) Benzoate]
- IC50 [1, 5]: 650 ± 40 µM
- IC50 [2, 6]: 190 ± 20 µM

SMILES: CCCCC(OC(=O)CCC)c1ccccc1C(=O)O (racemic) [I3, L-Arginine (R/S)-2-(1-N-Butyryloxy-n-Pentyl) Benzoate]
- IC50 [1, 5]: 1260 ± 70 µM
- IC50 [2, 6]: 520 ± 30 µM

SMILES: CCCCC(OC(C)=O)c1ccccc1C(=O)O (racemic) [I5, L-Lysine (R/S)-2-(1-Acetoxy-n-Pentyl) Benzoate]
- IC50 [1, 5]: 1150 ± 80 µM
- IC50 [2, 6]: 460 ± 30 µM

SMILES: CCCCC(OC(C)=O)c1ccccc1C(=O)O.N[C@@H](Cc1c[nH]cn1)C(=O)O (racemic) [I6, L-Histidine (R/S)-2-(1-Acetoxy-n-Pentyl) Benzoate]
- IC50 [1, 7]: 770 ± 50 µM
- IC50 [2, 8]: 140 ± 10 µM

SMILES: CCCC[C@@H](OC(C)=O)c1ccccc1C(=O)O.N=C(N)NN [I7r, Aminoguanidine (R)-2-(1-Acetoxy-n-Pentyl) Benzoate]
- IC50 [1, 7]: 940 ± 50 µM
- IC50 [2, 8]: 210 ± 10 µM

SMILES: CCCCC(OC(C)=O)c1ccccc1C(=O)O.N=C(N)NCCC[C@H](N)C(=O)O (racemic) [I1, L-Arginine (R/S)-2-(1-Acetoxy-n-Pentyl) Benzoate]
- IC50 [1, 7]: 740 ± 90 µM
- IC50 [2, 8]: 180 ± 30 µM
- Cerebral edema [3, 9]: 4.97 ± 3.30%
- Infarct volume [3, 9]: 16.11 ± 2.74%
- Inhibition rate of cerebral edema [3, 9]: 69.00%
- Inhibition rate of infarct volume [3, 9]: 61.50%
- Dry weight of thrombus [4]: 7.64 ± 0.40
- Wet weight of thrombus [4]: 25.81 ± 2.20**^
- Inhibition rate (dry weight of thrombus) ([4]; vs model group): 23.94%
- Inhibition rate (wet weight of thrombus) ([4]; vs model group): 28.72%

SMILES: CCCC[C@H](OC(C)=O)c1ccccc1C(=O)O.N=C(N)NN [I7s, Aminoguanidine (S)-2-(1-Acetoxy-n-Pentyl) Benzoate]
- IC50 [1, 7]: 680 ± 30 µM
- IC50 [2, 8]: 120 ± 10 µM
- Cerebral edema [3, 9]: 12.34 ± 4.57%
- Infarct volume [3, 9]: 24.83 ± 2.02%
- Inhibition rate of cerebral edema [3, 9]: 23.07%
- Inhibition rate of infarct volume [3, 9]: 40.67%

SMILES: CCCC[C@@H](OC(C)=O)c1ccccc1C(=O)O [(R)-APB, (R)-2-(1-acetoxy-n-pentyl)benzoic acid]
- IC50 [1, 5]: 760 ± 70 µM
- IC50 [2, 6]: 190 ± 20 µM

SMILES: N=C(N)NCCC[C@H](N)C(=O)O [L-arginine]
- IC50 [1, 5]: 5860 ± 690 µM
- IC50 [2, 6]: 5130 ± 650 µM

SMILES: CCCCC(O)c1ccccc1C(=O)O.N=C(N)NCCC[C@H](N)C(=O)O (racemic) [AHPB, L-Arginine (R/S)-2-(1-Hydroxy-n-Pentyl) Benzoate]
- IC50 [1, 7]: 980 ± 210 µM
- IC50 [2, 8]: 340 ± 40 µM
- Cerebral edema [3, 10]: 6.50 ± 1.86%
- Infarct volume [3, 10]: 37.54 ± 6.94%
- Inhibition rate of cerebral edema [3, 10]: 31.12%
- Inhibition rate of infarct volume [3, 10]: 24.34%
- Cerebral edema [3, 11]: 3.03 ± 2.87%
- Infarct volume [3, 11]: 25.70 ± 4.75%
- Inhibition rate of cerebral edema [3, 11]: 67.94%
- Inhibition rate of infarct volume [3, 11]: 48.19%
- Cerebral edema [3, 12]: 1.64 ± 3.36%
- Infarct volume [3, 12]: 23.56 ± 5.29%
- Inhibition rate of cerebral edema [3, 12]: 82.57%
- Inhibition rate of infarct volume [3, 12]: 52.51%
- Cerebral edema [3, 13]: 5.94 ± 2.45%
- Infarct volume [3, 13]: 29.98 ± 4.99%
- Inhibition rate of cerebral edema [3, 13]: 38.82%
- Inhibition rate of infarct volume [3, 13]: 39.06%
- Cerebral edema [3, 14]: 2.01 ± 2.91%
- Infarct volume [3, 14]: 19.83 ± 3.95%
- Inhibition rate of cerebral edema [3, 14]: 79.34%
- Inhibition rate of infarct volume [3, 14]: 59.69%
- Cerebral edema [3, 15]: 2.08 ± 4.58%
- Infarct volume [3, 15]: 17.71 ± 4.65%
- Inhibition rate of cerebral edema [3, 15]: 78.57%
- Inhibition rate of infarct volume [3, 15]: 64.00%
- Effects of improving cerebral infarction, cerebral edema and neurological function compared with NBP (5 mg/kg) ([3]; low-dose 5 mg/kg iv, at reperfusion or 2 h after): no significant difference
- Improving the neurological function compared with NBP (5 mg/kg) ([3]; middle and high doses 10, 20 mg/kg iv): equivalent to NBP (5 mg/kg)

- IC50 [1, 7]: 1600 ± 150 µM
- IC50 [2, 8]: 660 ± 70 µM
SMILES: CCCC[C@H]1OC(=O)c2ccccc21 [(R)-NBP, (R)-butylphthalide]

SMILES: CCCCC(OC(=O)c1ccccc1)c1ccccc1C(=O)O (racemic) [I4, L-Arginine (R/S)-2-(1-Benzoyloxy-n-Pentyl) Benzoate]
- IC50 [1, 7]: 820 ± 50 µM
- IC50 [2, 8]: 170 ± 70 µM

SMILES: CC1=NN(c2ccccc2)C(=O)C1 [Edaravone]
- Cerebral edema [3, 9]: 4.49 ± 4.84%
- Infarct volume [3, 9]: 14.29 ± 2.58%
- inhibition at 10 mg/kg/day [3, 16]: 72%
- inhibition at 10 mg/kg/day [3, 17]: 65.8%
- Dry weight of thrombus [4]: 8.23 ± 0.53
- Wet weight of thrombus [4]: 24.95 ± 1.20
- inhibition at 10 mg/kg/day [4, 18]: 18.1%
- inhibition at 10 mg/kg/day [4, 19]: 31.1%

SMILES: CCCC[C@@H](OC(C)=O)c1ccccc1C(=O)O [I1r, L-Arginine (R)-2-(1-Acetoxy-n-Pentyl) Benzoate]
- IC50 [1, 7]: 730 ± 70 µM
- IC50 [2, 8]: 180 ± 30 µM
- Cerebral edema [3, 9]: 10.72 ± 4.19%
- Infarct volume [3, 9]: 20.14 ± 2.95%
- inhibition at 10 mg/kg/day [3, 16]: 33.2%
- inhibition at 10 mg/kg/day [3, 17]: 51.9%
- Dry weight of thrombus [4]: 8.51 ± 0.18
- inhibition at 10 mg/kg/day [4, 18]: 15.2%
- inhibition at 10 mg/kg/day [4, 19]: 18.4%

SMILES: CCCCC(OC(C)=O)c1ccccc1C(=O)O.N=C(N)NN (racemic) [I7, Aminoguanidine (R/S)-2-(1-Acetoxy-n-Pentyl) Benzoate]
- IC50 [1, 7]: 1180 ± 60 µM
- IC50 [2, 8]: 280 ± 70 µM

SMILES: CCCCC(OC(C)=O)c1ccccc1C(=O)O (racemic) [(R/S)-APB, (R/S)-2-(1-acetoxy-n-pentyl)benzoic acid]
- IC50 [1, 7]: 810 ± 40 µM
- IC50 [2, 8]: 470 ± 40 µM
